The target of data set [1] is T1, UGT1A7 (Homo sapiens, UniProt Q9HAW7).
T1 sequence (Q9HAW7 26-530): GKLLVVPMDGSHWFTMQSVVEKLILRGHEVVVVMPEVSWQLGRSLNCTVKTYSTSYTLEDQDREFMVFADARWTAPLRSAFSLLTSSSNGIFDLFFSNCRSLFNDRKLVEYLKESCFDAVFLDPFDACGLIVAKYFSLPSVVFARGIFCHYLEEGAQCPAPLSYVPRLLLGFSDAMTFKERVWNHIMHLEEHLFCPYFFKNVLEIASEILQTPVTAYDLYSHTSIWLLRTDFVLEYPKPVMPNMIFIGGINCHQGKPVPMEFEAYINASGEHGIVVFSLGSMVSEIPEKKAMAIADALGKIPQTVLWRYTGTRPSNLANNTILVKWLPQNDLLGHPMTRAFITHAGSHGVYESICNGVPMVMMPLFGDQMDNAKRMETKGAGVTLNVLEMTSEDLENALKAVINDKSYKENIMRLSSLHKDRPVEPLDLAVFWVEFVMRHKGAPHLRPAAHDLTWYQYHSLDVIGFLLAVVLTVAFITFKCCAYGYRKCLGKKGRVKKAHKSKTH
The data set can be described thus: Enzyme inhibition assay, UGT1A7.

The target in data set [2] is T2, UGT1A4 (Homo sapiens, UniProt P22310).
T2 sequence (P22310 29-534): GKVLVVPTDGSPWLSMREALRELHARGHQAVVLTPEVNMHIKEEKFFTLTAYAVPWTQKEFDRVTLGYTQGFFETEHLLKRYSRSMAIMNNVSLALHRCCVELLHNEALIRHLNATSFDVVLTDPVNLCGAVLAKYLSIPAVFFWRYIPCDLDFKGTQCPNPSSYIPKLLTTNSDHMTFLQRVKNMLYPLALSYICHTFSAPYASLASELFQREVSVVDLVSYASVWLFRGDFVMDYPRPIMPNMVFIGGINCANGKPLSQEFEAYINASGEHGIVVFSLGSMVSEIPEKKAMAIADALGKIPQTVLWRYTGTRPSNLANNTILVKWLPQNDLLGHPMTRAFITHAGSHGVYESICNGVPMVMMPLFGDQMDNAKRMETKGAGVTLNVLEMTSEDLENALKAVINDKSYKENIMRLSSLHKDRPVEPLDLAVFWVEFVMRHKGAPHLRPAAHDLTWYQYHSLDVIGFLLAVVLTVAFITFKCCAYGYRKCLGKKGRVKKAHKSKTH
The data set can be described thus: Enzyme inhibition assay, UGT1A4.

Data set [3] relates to CYP3A4 mRNA. Set-up: method as in PMID 23965226. The following applies: 10 μM DPV, colorectal tissue from three human donors; cited from earlier work.
For data set [4], the target named is T3, UGT1A6 (Homo sapiens, UniProt P19224).
T3 sequence (P19224 27-532): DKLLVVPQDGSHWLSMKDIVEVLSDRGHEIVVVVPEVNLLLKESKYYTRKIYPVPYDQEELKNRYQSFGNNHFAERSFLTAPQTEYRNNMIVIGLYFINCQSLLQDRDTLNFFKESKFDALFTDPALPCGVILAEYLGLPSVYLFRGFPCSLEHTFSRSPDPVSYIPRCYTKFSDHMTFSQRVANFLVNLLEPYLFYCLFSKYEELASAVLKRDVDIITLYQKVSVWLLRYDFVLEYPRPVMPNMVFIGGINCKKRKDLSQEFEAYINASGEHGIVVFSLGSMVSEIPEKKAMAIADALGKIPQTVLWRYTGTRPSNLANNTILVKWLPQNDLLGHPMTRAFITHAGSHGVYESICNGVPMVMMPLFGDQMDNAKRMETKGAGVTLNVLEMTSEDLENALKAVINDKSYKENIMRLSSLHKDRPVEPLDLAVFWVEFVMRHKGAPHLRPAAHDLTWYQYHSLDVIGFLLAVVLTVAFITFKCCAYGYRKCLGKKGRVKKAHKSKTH
Kind of data set: Enzyme inhibition assay, UGT1A6. The following applies: Recombinant UGT1A6; 4-methylumbelliferone O-glucuronidation. It counts as in vitro ADME.

Data set [5] concerns primary human hepatocytes. Kind of data set: Cytotoxicity in CYP induction studies. The format is cell-based. The following applies: 303 nM (100 ng/mL) in primary human hepatocytes.
Data set [6] concerns the target T4, CYP2B6 (Homo sapiens, UniProt P20813).
T4 construct: tissue Xenotech LLC; host or cells: human liver microsomes, mixed-gender 50 donor pool
The data set can be described thus: Enzyme inhibition assay, CYP2B6. It counts as in vitro ADME.

For data set [7], the target named is CYP2C19 (Homo sapiens, UniProt P33261). The data set can be described thus: Enzyme inhibition assay, CYP2C19.
Chain of CYP2C19 (P33261 whole entry): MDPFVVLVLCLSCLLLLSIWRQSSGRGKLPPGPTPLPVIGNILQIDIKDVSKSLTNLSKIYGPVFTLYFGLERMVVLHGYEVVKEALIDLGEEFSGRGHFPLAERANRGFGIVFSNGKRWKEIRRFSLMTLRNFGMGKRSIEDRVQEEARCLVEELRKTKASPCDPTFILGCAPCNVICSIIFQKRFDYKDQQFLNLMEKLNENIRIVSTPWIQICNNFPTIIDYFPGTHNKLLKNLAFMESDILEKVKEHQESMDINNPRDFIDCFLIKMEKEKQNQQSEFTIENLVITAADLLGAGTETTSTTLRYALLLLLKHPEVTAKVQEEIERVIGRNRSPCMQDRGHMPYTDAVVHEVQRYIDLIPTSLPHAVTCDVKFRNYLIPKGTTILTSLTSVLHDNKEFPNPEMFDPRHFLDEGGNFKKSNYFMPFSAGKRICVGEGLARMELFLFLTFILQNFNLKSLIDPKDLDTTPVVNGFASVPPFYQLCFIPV
The test system of data set [8] is CYP1A2 mRNA. Set-up: method as in PMID 23965226. The settings on record: 10 μM DPV, colorectal tissue from three human donors; cited from earlier work.
The test system of data set [9] is HLM (Phase 2). The data set can be described thus: Reaction phenotyping, HLM with UDPGA. The following applies: HLM (Phase 2).
For data set [10] the following is noted: women, cited from earlier work; for Cmax: plasma, ref IPM 028.
Data set [11] addresses T5, UGT1A1 (Homo sapiens, UniProt P22309).
T5 construct: from tissue
T5 sequence (P22309 26-533): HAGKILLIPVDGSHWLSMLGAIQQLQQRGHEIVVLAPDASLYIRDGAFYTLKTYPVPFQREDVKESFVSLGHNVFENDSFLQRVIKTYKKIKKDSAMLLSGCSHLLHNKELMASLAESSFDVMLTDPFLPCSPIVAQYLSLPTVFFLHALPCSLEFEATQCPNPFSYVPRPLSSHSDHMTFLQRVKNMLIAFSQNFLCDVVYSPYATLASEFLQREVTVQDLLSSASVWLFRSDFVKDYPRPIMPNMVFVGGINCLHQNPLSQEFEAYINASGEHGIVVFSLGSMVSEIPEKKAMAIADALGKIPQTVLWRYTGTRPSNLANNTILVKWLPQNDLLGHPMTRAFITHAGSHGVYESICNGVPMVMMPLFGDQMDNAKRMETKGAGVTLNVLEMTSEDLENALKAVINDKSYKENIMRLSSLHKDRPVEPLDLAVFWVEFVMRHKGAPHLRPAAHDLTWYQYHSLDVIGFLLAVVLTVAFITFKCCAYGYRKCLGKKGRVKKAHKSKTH
The data set can be described thus: Enzyme inhibition assay, UGT1A1. The following applies: for IC50: HLM, UGT1A1 SN38 glucuronidation. It counts as in vitro ADME.

In data set [12] the test system is CYP2B6 mRNA. On the set-up: method as in PMID 23965226. The following applies: 10 μM DPV, colorectal tissue from three human donors; cited from earlier work.
Data set [13] addresses T6, CYP2C8 (Homo sapiens, UniProt P10632).
T6 construct: tissue Xenotech LLC; host or cells: human liver microsomes, mixed-gender 50 donor pool
Kind of data set: Enzyme inhibition assay, CYP2C8. The format is in vitro ADME.

In data set [14] the test system is HLM (Phase 1). Kind of data set: Reaction phenotyping, HLM with NADPH. It counts as in vitro ADME, human.

Each structure is given as a SMILES string. Read-outs that look alike come from different tables or passages of the source.

T6 sequence (P10632 whole entry): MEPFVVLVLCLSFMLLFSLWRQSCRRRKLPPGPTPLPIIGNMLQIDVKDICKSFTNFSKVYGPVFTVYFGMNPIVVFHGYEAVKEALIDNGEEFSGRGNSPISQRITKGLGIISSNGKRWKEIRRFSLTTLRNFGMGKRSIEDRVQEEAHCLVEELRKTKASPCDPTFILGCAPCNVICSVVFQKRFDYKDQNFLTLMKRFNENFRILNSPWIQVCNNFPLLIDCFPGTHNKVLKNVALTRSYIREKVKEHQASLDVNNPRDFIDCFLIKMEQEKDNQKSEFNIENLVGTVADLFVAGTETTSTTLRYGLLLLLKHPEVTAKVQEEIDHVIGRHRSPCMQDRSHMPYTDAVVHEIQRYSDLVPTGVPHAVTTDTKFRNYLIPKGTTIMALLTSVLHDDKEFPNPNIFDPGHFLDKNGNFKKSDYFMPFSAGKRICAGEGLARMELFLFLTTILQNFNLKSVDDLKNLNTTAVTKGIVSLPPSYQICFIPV
T4 sequence (P20813 whole entry): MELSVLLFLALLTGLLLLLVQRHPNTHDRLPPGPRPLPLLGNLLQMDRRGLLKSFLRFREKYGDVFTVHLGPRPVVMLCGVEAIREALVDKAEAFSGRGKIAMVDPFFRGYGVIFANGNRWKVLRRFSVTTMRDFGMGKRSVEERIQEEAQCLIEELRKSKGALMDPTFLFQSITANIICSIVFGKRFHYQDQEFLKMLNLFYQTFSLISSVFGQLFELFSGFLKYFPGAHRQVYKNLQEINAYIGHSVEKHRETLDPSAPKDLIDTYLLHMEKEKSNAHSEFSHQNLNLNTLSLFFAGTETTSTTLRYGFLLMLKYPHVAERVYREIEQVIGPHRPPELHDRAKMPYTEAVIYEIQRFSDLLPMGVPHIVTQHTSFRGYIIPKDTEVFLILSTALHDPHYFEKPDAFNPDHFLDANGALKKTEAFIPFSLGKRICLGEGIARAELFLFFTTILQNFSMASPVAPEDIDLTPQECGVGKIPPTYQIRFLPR

As for `Cc1cc(C)c(Nc2ccnc(Nc3ccc(C#N)cc3)n2)c(C)c1` [DPV, Dapivirine], the half-inhibitory concentration (IC50) in [1] was 24.2 µM; in [2] it was 9.45 µM; in [4], 19.6 µM; in data set [6], 10.1 µM; in data set [7], above 30 µM; in data set [11] (read-out: IC50), 5.2 µM. In data set [13], this compound registered an IC50 of 1.41 µM. In [3], the “CYP3A4 mRNA change” value is “induction in two donors”. In addition, the cytotoxicity entry in data set [5] was “no cytotoxicity observed”. The “CYP1A2 mRNA change” value in data set [8] was “induction in one donor”. In addition, the “% DPV Remaining at 60 min without MIC” value came out at 97.15% in data set [9] (10 μM DPV) and 37.14% in [14] (10 μM DPV). In addition, the “% DPV Remaining at 60 min with MIC” value is given as 95.59% in [9] (10 μM DPV and 30 μM MIC); 88.39% in data set [14] (10 μM DPV and 30 μM MIC). Also, the “increase in systemic exposure to DPV” value in [10] (concomitant use of DPV ring and MIC vaginal capsule compared to DPV ring alone) was 20%. The Cmax in data set [10] (after DPV ring administration alone) is 0.462 ± 0.288 ng/mL. The “CYP2B6 mRNA change” value in data set [12] is recorded as “inhibition in one donor”.
Turning to `Clc1ccc(COC(Cn2ccnc2)c2ccc(Cl)cc2Cl)c(Cl)c1` (centres unmarked) [MIC, miconazole], the concentration for half-maximal inhibition (IC50) in [1] was above 30 µM; in data set [2], 26.5 µM; in [4], 17.1 µM; in [11], “Apparent activation with MIC”. Further, in data set [10] (after MIC vaginal capsule alone), the highest concentration (Cmax) was 7.61 ± 3.13 ng/mL. For the same compound, the Emax at 15 min, 30 µM in [11] (human, human liver microsomes, probe SN38 (0.5 µM), SN38 glucuronidation, read-out: maximum activation of SN38 glucuronidation) stood at 607%.

Broadly, the IC50 is the concentration that inhibits the measured activity by half. As usually defined, the Cmax is the maximum level reached in the sampled fluid or tissue.
